Measured values from PMC6222614, “Disubstituted 4-Chloro-3-nitrophenylthiourea Derivatives: Antimicrobial and Cytotoxic Studies” (Molecules : A Journal of Synthetic Chemistry and Natural …, 2018).
Converted amounts (≈) assume the structure as drawn.

Tests used:
[1] = Cytotoxicity against mock-infected MT-4 cells (MTT); assay type: cell-based, human; settings: human, concentration reducing viability of mock-infected MT-4 cells by 50%
Procedure: (§1) Cell line supporting the multiplication of Human Immunodeficiency Virus type-1 (HIV-1) was the CD4+ human T-cells, derived from human hematological tumors, containing an integrated HTLV-1 genome (MT-4). Cells were purchased from American Type Culture Collection (ATCC). Human Immunodeficiency Virus type-1 (HIV-1) IIIB laboratory strain was obtained from the supernatant of the persistently infected H9/IIIB cells (NIH 1983).
Exponentially growing MT-4 cells were seeded at an initial density of 1 × 10^5 cells/mL in 96-well plates in RPMI-1640 medium, supplemented with 10% fetal bovine serum (FBS), 100 units/mL penicillin G and 100 μg/mL streptomycin. Cell cultures were then incubated at 37 °C in a humidified, 5% CO2 atmosphere, in the absence or presence of serial dilutions of tested compounds. Cell viability was determined after 96 h at 37 °C by the 3-(4,5-dimethylthiazol-2-yl)-2,5-diphenyl-tetrazolium bromide (MTT) method.

[2] = system: HIV-1 IIIB; assay: Anti-HIV-1 activity: protection of MT-4 cells from virus-induced cytopathogenicity (MTT); assay type: cell-based, Human Immunodeficiency Virus type-1; settings: Human immunodeficiency virus 1, IIIB, MT4, 96 h; 50% protection of MT-4 cells from HIV-1 induced cytopathogenicity, MTT, 4-day incubation; read-out: HIV-1IIIB EC50
Description: as §1
The activity of compounds against HIV-1 was based on inhibition of virus-induced cytopathogenicity in MT-4 cell acutely infected with a multiplicity of infection (m.o.i.) of 0.01. Briefly, 50 μL of RPMI containing 1 × 10^4 MT-4 cells were added to each well of flat-bottom microtiter trays, containing 50 μL of RPMI without or with serial dilutions of test compounds. Then, 20 μL of a HIV-1 suspension containing 100 CCID50 were added. After a 4-day incubation at 37 °C, cell viability was determined by the MTT method.

[3] = system: B. cereus ATCC 11778; assay: MIC, twofold serial microdilution; assay type: cell-based; settings: Bacillus cereus, ATCC11778; standard strain, 18 h, 35 °C
Procedure: (§2) The antimicrobial activity of the compounds was tested on Gram-positive bacteria (Staphylococcus aureus NCTC 4163, Staphylococcus aureus ATCC 25923, Staphylococcus aureus ATCC 6538, Staphylococcus aureus ATCC 29213, Staphylococcus epidermidis ATCC 12228, Staphylococcus epidermidis ATCC 35984, Enterococcus faecalis ATCC 29212, Bacillus subtilis ATCC 6633, Bacillus cereus ATCC 11778, Micrococcus luteus ATCC 9341, Micrococcus luteus ATCC 10240); Gram-negative rods (Escherichia coli ATCC 10538, Escherichia coli ATCC 25922, Escherichia coli NCTC 8196, Proteus vulgaris NCTC 4635, Pseudomonas aeruginosa ATCC 15442, Pseudomonas aeruginosa NCTC 6749, Pseudomonas aeruginosa ATCC 27863, Bordetella bronchiseptica ATCC 4617) and yeasts (Candida albicans ATCC 10231, Candida albicans ATCC 90028, Candida parapsilosis ATCC 22019). Other microorganisms used were obtained from the collection of the Department of Pharmaceutical Microbiology, Medical University of Warsaw, Poland.
(§3) Antibacterial activity was examined by the disc-diffusion method under standard conditions using Mueller-Hinton II agar medium (Becton Dickinson) according to CLSI (previously NCCLS) guidelines. Antifungal activities were assessed using Mueller-Hinton agar + 2% glucose and 0.5 µg/mL Methylene Blue Dye Medium. Sterile filter paper discs (9 mm diameter, Whatman No 3 chromatography paper) were dripped with tested compound solutions (in DMSO) to load 400 μg of a given compound per disc. Dry discs were placed on the surface of appropriate agar medium. The results (diameter of the growth inhibition zone) were read after 18 h of incubation at 35 °C. Minimal Inhibitory Concentration (MIC) was tested by the twofold serial microdilution method (in 96-well microtiter plates) using Mueller-Hinton Broth medium (Beckton Dickinson) for bacteria or RPMI-1640 medium for Candida species according to CLSI guidelines. The stock solution of tested agent was prepared in DMSO and diluted in sterile water. Concentrations of tested agents ranged from 0.125 to 512 µg/mL. The final inoculum of all studied microorganisms was 10^5 CFU/ mL^−1 (colony forming units per mL). Minimal inhibitory concentrations (the lowest concentration of a tested agent that prevents visible growth of a microorganism) were read after 18 h (bacteria) or 24 h (yeasts) of incubation at 35 °C.

[4] = system: B. subtilis ATCC 6633; assay: MIC, twofold serial microdilution; assay type: cell-based; settings: Bacillus subtilis, ATCC6633; standard strain, 18 h, 35 °C
Procedure: as §2, §3

[5] = system: E. faecalis ATCC 29212; assay: MIC, twofold serial microdilution; assay type: cell-based; settings: Enterococcus faecalis, ATCC29212; standard strain, 18 h, 35 °C
Procedure: as §2, §3

[6] = system: M. luteus ATCC 10240; assay: MIC, twofold serial microdilution; assay type: cell-based; settings: Micrococcus luteus, ATCC10240; standard strain, 18 h, 35 °C
Procedure: as §2, §3

[7] = system: M. luteus ATCC 9341; assay: MIC, twofold serial microdilution; assay type: cell-based; settings: Micrococcus luteus, ATCC9341; standard strain, 18 h, 35 °C
Procedure: as §2, §3

[8] = system: S. aureus ATCC 25923; assay: MIC, twofold serial microdilution; assay type: cell-based; settings: Staphylococcus aureus, ATCC25923; standard strain, 18 h, 35 °C
Procedure: as §2, §3

[9] = system: S. aureus ATCC 29213; assay: MIC, twofold serial microdilution; assay type: cell-based; settings: Staphylococcus aureus, ATCC29213; standard strain, 18 h, 35 °C
Procedure: as §2, §3

[10] = system: S. aureus ATCC 6538; assay: MIC, twofold serial microdilution; assay type: cell-based; settings: Staphylococcus aureus, ATCC6538; standard strain, 18 h, 35 °C
Procedure: as §2, §3

[11] = system: S. aureus NCTC 4163; assay: MIC, twofold serial microdilution; assay type: cell-based; settings: Staphylococcus aureus, NCTC4163; standard strain, 18 h, 35 °C
Procedure: as §2, §3

[12] = system: S. epidermidis ATCC 12228; assay: MIC, twofold serial microdilution; assay type: cell-based; settings: Staphylococcus epidermidis, ATCC12228; standard strain, 18 h, 35 °C
Procedure: as §2, §3

[13] = system: S. epidermidis ATCC 35984; assay: MIC, twofold serial microdilution; assay type: cell-based; settings: Staphylococcus epidermidis, ATCC35984; standard strain, 18 h, 35 °C
Procedure: as §2, §3

[14] = system: S. epidermidis MRSE 403/11; assay: MIC, hospital methicillin-resistant strain; assay type: cell-based; settings: Staphylococcus epidermidis
Procedure: as §2, §3

[15] = system: S. epidermidis MRSE 404/11; assay: MIC, hospital methicillin-resistant strain; assay type: cell-based; settings: Staphylococcus epidermidis
Procedure: as §2, §3

[16] = system: S. epidermidis MRSE 405/11; assay: MIC, hospital methicillin-resistant strain; assay type: cell-based; settings: Staphylococcus epidermidis
Procedure: as §2, §3

[17] = system: S. epidermidis MRSE 406/11; assay: MIC, hospital methicillin-resistant strain; assay type: cell-based; settings: Staphylococcus epidermidis
Procedure: as §2, §3

[18] = system: S. epidermidis MRSE 407/11; assay: MIC, hospital methicillin-resistant strain; assay type: cell-based; settings: Staphylococcus epidermidis
Procedure: as §2, §3

[19] = system: S. epidermidis MRSE 409/11; assay: MIC, hospital methicillin-resistant strain; assay type: cell-based; settings: Staphylococcus epidermidis
Procedure: as §2, §3

[20] = system: S. epidermidis MRSE 411/11; assay: MIC, hospital methicillin-resistant strain; assay type: cell-based; settings: Staphylococcus epidermidis
Procedure: as §2, §3

[21] = system: S. epidermidis MRSE 412/11; assay: MIC, hospital methicillin-resistant strain; assay type: cell-based; settings: Staphylococcus epidermidis
Procedure: as §2, §3

[22] = system: S. epidermidis MRSE 413/11; assay: MIC, hospital methicillin-resistant strain; assay type: cell-based; settings: Staphylococcus epidermidis
Procedure: as §2, §3

[23] = system: S. epidermidis MRSE 422/11; assay: MIC, hospital methicillin-resistant strain; assay type: cell-based; settings: Staphylococcus epidermidis
Procedure: as §2, §3

[24] = system: staphylococci; assay: MIC against staphylococci; assay type: cell-based; settings: moderate activity
Procedure: as §2, §3

O=[N+]([O-])c1cc(NC(=S)NCc2ccco2)ccc1Cl [Compound 30, 1-(4-chloro-3-nitrophenyl)-3-(furan-2-ylmethyl)thiourea]
CC50 at 96 h [1]: 25.6 µM | EC50 [2]: > 25.6 µM | MIC [3]: 16 µg/mL (≈ 51.3 µM) | MIC [4]: 16 µg/mL (≈ 51.3 µM) | MIC [5]: 32 µg/mL (≈ 103 µM) | MIC [6]: 16 µg/mL (≈ 51.3 µM) | MIC [7]: 16 µg/mL (≈ 51.3 µM) | MIC [8]: 8 µg/mL (≈ 25.7 µM) | MIC [9]: 16 µg/mL (≈ 51.3 µM) | MIC [10]: 16 µg/mL (≈ 51.3 µM) | MIC [11]: 16 µg/mL (≈ 51.3 µM) | MIC [12]: 32 µg/mL (≈ 103 µM) | MIC [13]: 32 µg/mL (≈ 103 µM) | MIC [14]: 32 µg/mL (≈ 103 µM) | MIC [15]: 32 µg/mL (≈ 103 µM) | MIC [16]: 32 µg/mL (≈ 103 µM) | MIC [17]: 64 µg/mL (≈ 205 µM) | MIC [18]: 32 µg/mL (≈ 103 µM) | MIC [19]: 32 µg/mL (≈ 103 µM) | MIC [20]: 32 µg/mL (≈ 103 µM) | MIC [21]: 32 µg/mL (≈ 103 µM) | MIC [22]: 32 µg/mL (≈ 103 µM) | MIC [23]: 32 µg/mL (≈ 103 µM) | MIC range towards staphylococci [24]: 8 to 16 µg/mL | melting point: 144 to 146 °C

C=CCNC(=S)Nc1ccc(Cl)c([N+](=O)[O-])c1 [Compound 28, 1-(4-chloro-3-nitrophenyl)-3-prop-2-en-1-ylthiourea]
CC50 at 96 h [1]: 43 µM | EC50 [2]: ≥ 43 µM | MIC [3]: 32 µg/mL (≈ 118 µM) | MIC [4]: 32 µg/mL (≈ 118 µM) | MIC [5]: 64 µg/mL (≈ 236 µM) | MIC [6]: 32 µg/mL (≈ 118 µM) | MIC [7]: 32 µg/mL (≈ 118 µM) | MIC [8]: 32 µg/mL (≈ 118 µM) | MIC [9]: 64 µg/mL (≈ 236 µM) | MIC [10]: 32 µg/mL (≈ 118 µM) | MIC [11]: 64 µg/mL (≈ 236 µM) | MIC [12]: 32 µg/mL (≈ 118 µM) | MIC [13]: 32 µg/mL (≈ 118 µM) | MIC [14]: 64 µg/mL (≈ 236 µM) | MIC [15]: 64 µg/mL (≈ 236 µM) | MIC [16]: 64 µg/mL (≈ 236 µM) | MIC [17]: 64 µg/mL (≈ 236 µM) | MIC [18]: 64 µg/mL (≈ 236 µM) | MIC [19]: 64 µg/mL (≈ 236 µM) | MIC [20]: 64 µg/mL (≈ 236 µM) | MIC [21]: 128 µg/mL (≈ 471 µM) | MIC [22]: 64 µg/mL (≈ 236 µM) | MIC [23]: 128 µg/mL (≈ 471 µM) | melting point: 112 to 114 °C

O=C(O)c1cn(C2CC2)c2cc(N3CCNCC3)c(F)cc2c1=O [Ciprofloxacin, reference compound]
MIC [3]: 0.25 µg/mL (≈ 0.754 µM) | MIC [4]: < 0.12 µg/mL | MIC [5]: 1 µg/mL (≈ 3.02 µM) | MIC [6]: 2 µg/mL (≈ 6.04 µM) | MIC [7]: 1 µg/mL (≈ 3.02 µM) | MIC [8]: 0.5 µg/mL (≈ 1.51 µM) | MIC [9]: 0.5 µg/mL (≈ 1.51 µM) | MIC [10]: 0.25 µg/mL (≈ 0.754 µM) | MIC [11]: 0.25 µg/mL (≈ 0.754 µM) | MIC [12]: 0.25 µg/mL (≈ 0.754 µM) | MIC [13]: 0.25 µg/mL (≈ 0.754 µM) | MIC [14]: 16 µg/mL (≈ 48.3 µM) | MIC [15]: 64 µg/mL (≈ 193 µM) | MIC [16]: 4 µg/mL (≈ 12.1 µM) | MIC [17]: 0.5 µg/mL (≈ 1.51 µM) | MIC [18]: 64 µg/mL (≈ 193 µM) | MIC [19]: 2 µg/mL (≈ 6.04 µM) | MIC [20]: 4 µg/mL (≈ 12.1 µM) | MIC [21]: 64 µg/mL (≈ 193 µM) | MIC [22]: 32 µg/mL (≈ 96.6 µM) | MIC [23]: 4 µg/mL (≈ 12.1 µM)
